Test system: varicella-zoster virus (VZV, TK+ Oka strain)
Format: cell-based
Settings: VZV in HEL cells; strain not specified

Row | SMILES | Selectivity index (SI), ratio CC50 for HEL cells / EC50
1 | CC(=O)OC[C@H]1O[C@@H](n2cc3c(C#Cc4ccc(C)cc4)c(-c4ccc(C)cc4)oc3nc2=O)C[C@@H]1OC(C)=O [Compound 6h, 3-(3′,5′-di-O-acetyl-2′-deoxy-β-D-ribofuranosyl)-6-(4-methylphenyl)-5-((4-methylphenyl)ethynyl)-2,3-dihydrofuro[2,3-d]pyrimidin-2-one] | ≤ 1
2 | CC(=O)OC[C@H]1O[C@@H](n2cc3c(C#CC4(O)c5ccccc5-c5ccccc54)c(-c4ccc(C)cc4)oc3nc2=O)C[C@@H]1OC(C)=O [Compound 6c, 3-(3′,5′-di-O-acetyl-2′-deoxy-β-D-ribofuranosyl)-5-((9-hydroxy-9H-fluoren-9-yl)ethynyl)-6-(4-methylphenyl)-2,3-dihydrofuro[2,3-d]pyrimidin-2-one] | ≤ 1
3 | CCCCCc1ccc(-c2oc3nc(=O)n([C@H]4C[C@H](OC(C)=O)[C@@H](COC(C)=O)O4)cc3c2C#CCCO)cc1 [Compound 7b, 3-(3′,5′-di-O-acetyl-2′-deoxy-β-D-ribofuranosyl)-5-(4-hydroxybut-1-yn-1-yl)-6-(4-pentylphenyl)-2,3-dihydrofuro[2,3-d]pyrimidin-2-one] | ≤ 1
4 | CCCCCc1ccc(-c2oc3nc(=O)n([C@H]4C[C@H](OC(C)=O)[C@@H](COC(C)=O)O4)cc3c2C#CCO)cc1 [Compound 7a, 3-(3′,5′-di-O-acetyl-2′-deoxy-β-D-ribofuranosyl)-5-(3-hydroxyprop-1-yn-1-yl)-6-(4-pentylphenyl)-2,3-dihydrofuro[2,3-d]pyrimidin-2-one] | ≤ 1

— paper PMC7521880 (European Journal of Medicinal Chemistry, 2020)
